The numbers were not newly measured in PMC8559537 (ACS infectious diseases, 2021), which cites them from elsewhere.

In this data set the test system is nanoluciferase (Nluc) expressing C. parvum. The note with it: positive control, 100 mg/kg.

In the case of `CCOc1ccc2cc(-c3nn(CC4CCN(C)CC4)c4ncnc(N)c34)ccc2n1` [BKI-1369], the “effect on infection in the IFN-γ KO mouse model” value was “reduce infection quickly”.
